Assay results published in PMC6219668 (Oncotarget, 2018).
pEC50, pIC50: −log10 of the molar value.

System: panel of nearly 500 cancer cell lines
Experiment: Cancer Cell Line Encyclopedia profiling, 3-day CellTiter-Glo
Format: cell-based
Parameters: Amax: unit not given here

## CN(C)C(=O)c1cc2cnc(Nc3ccc(N4CCNCC4)cn3)nc2n1C1CCCC1 [Ribociclib, 7-cyclopentyl-2-(5-piperazin-1-yl-pyridin-2-ylamino)-7H-pyrrolo[2,3-d]pyrimidine-6-carboxylic acid dimethylamide]
Homo sapiens, TCC-SUP
  pEC50: < 5.10
  pIC50: < 5.10
Homo sapiens, TE-11
  pEC50: 5.68
  pIC50: < 5.10
Homo sapiens, TE-15
  pEC50: 5.91
  pIC50: < 5.10
Homo sapiens, TOV21G
  pEC50: 5.91
  pIC50: < 5.10
Homo sapiens, TOV112D
  pEC50: 6.00
  pIC50: < 5.10
Homo sapiens, Toledo
  pEC50: 5.82
  pIC50: < 5.10
Homo sapiens, U2OS
  pEC50: 5.68
  pIC50: < 5.10
Homo sapiens, U-87 MG
  pEC50: < 5.10
  pIC50: < 5.10
Homo sapiens, U-118-MG
  pEC50: 5.57
  pIC50: < 5.10
Homo sapiens, U-937
  pEC50: 5.76
  pIC50: 5.45
Homo sapiens, UACC-62
  pEC50: 5.79
  pIC50: < 5.10
Homo sapiens, UACC-257
  pEC50: 6.24
  pIC50: < 5.10
Homo sapiens, UACC-812
  pEC50: < 5.10
  pIC50: < 5.10
Homo sapiens, UMUC3
  pEC50: < 5.10
  pIC50: < 5.10
Homo sapiens, WM 266-4
  pEC50: 6.02
  pIC50: < 5.10
Homo sapiens, WM793
  pEC50: < 5.10
  pIC50: < 5.10
Homo sapiens, WM-115
  pEC50: < 5.10
  pIC50: < 5.10
Homo sapiens, YKG-1
  pEC50: < 5.10
  pIC50: < 5.10
Homo sapiens, ZR-75-1
  pEC50: < 5.10
  pIC50: < 5.10
Homo sapiens, ZR-75-30
  pEC50: < 5.10
  pIC50: < 5.10
Hs766T
  pEC50: < 5.10
  pIC50: < 5.10
IGR-39
  pEC50: < 5.10
  pIC50: < 5.10
JHH7
  pEC50: 5.74
  pIC50: < 5.10
JHH-2
  pEC50: 5.10
  pIC50: < 5.10
JHH-4
  pEC50: 5.65
  pIC50: < 5.10
JMSU-1
  pEC50: < 5.10
  pIC50: < 5.10
KE-97
  pEC50: 5.42
  pIC50: 5.34
KHM-1B
  pEC50: 6.47
  pIC50: < 5.10
KMM-1
  pIC50: 5.37
KMRC-1
  pEC50: 6.04
  pIC50: < 5.10
KMS-26
  pEC50: 5.47
  pIC50: 5.60
Karpas-620
  pEC50: 7.11
  pIC50: < 5.10
Kelly
  pEC50: 5.18
  pIC50: 5.18
LOU-NH91
  pEC50: < 5.10
  pIC50: < 5.10
LUDLU-1
  pEC50: 7.81
  pIC50: < 5.10
Mono-Mac-1
  pEC50: 6.15
  pIC50: 5.49
NCI-H322
  pEC50: < 5.10
  pIC50: < 5.10
NCI-H1339
  pEC50: < 5.10
  pIC50: < 5.10
NCI-H1568
  pEC50: < 5.10
  pIC50: < 5.10
NCI-H1915
  pEC50: < 5.10
  pIC50: < 5.10
NCI-H2023
  pEC50: 7.16
  pIC50: < 5.10
NCI-H2172
  pEC50: < 5.10
  pIC50: < 5.10
OCUM1
  pEC50: < 5.10
  pIC50: < 5.10
OE21
  pEC50: < 5.10
  pIC50: 5.35
ONCO-DG-1
  pEC50: < 5.10
  pIC50: < 5.10
PK-59
  pEC50: < 5.10
  pIC50: < 5.10
PL45
  pEC50: 7.01
  pIC50: < 5.10
PaTu 8902
  pEC50: < 5.10
  pIC50: < 5.10
QGP-1
  pEC50: 6.51
  pIC50: 5.63
SH-10-TC
  pEC50: < 5.10
  pIC50: < 5.10
SUIT-2
  pEC50: 5.79
  pIC50: 5.10
SW579
  pEC50: 6.03
  pIC50: < 5.10
SW1271
  pEC50: 5.60
  pIC50: < 5.10
TC-71
  pEC50: < 5.10
  pIC50: < 5.10
WM983B
  pEC50: 6.94
  pIC50: 6.49
WM-1799
  pEC50: 6.69
  pIC50: < 5.10
a172 (central_nervous_system)
  Amax: -18.6367
a204 (soft_tissue)
  Amax: -24.3309
a253 (salivary_gland)
  Amax: 9.763
a2058 (skin)
  Amax: 0.435
g402 (soft_tissue)
  Amax: -59.1579
Gamg (central_nervous_system)
  Amax: -4.349
gb1 (central_nervous_system)
  Amax: -5.547
Gciy (stomach)
  Amax: -6.8217
Gct (soft_tissue)
  Amax: -35.032
gi1 (central_nervous_system)
  Amax: 1.537
glc82 (lung)
  Amax: 6.841
gms10 (central_nervous_system)
  Amax: 6.4331
granta519 (haematopoietic_and_lymphoid_tissue)
  Amax: -7.882
h4 (central_nervous_system)
  Amax: -7.315
Hara (lung)
  Amax: -39.5316
hcc15 (lung)
  Amax: 11.5352
hcc44 (lung)
  Amax: -21.2383
hcc56 (large_intestine)
  Amax: -7.243
hcc70 (breast)
  Amax: 9.331
hcc78 (lung)
  Amax: 8.5798
hcc827 (lung)
  Amax: 5.053
hcc1187 (breast)
  Amax: -1.8256
hcc1395 (breast)
  Amax: 4.555
hcc1569 (breast)
  Amax: -4.171
hcc1806 (breast)
  Amax: -2.407
hcc1954 (breast)
  Amax: 5.4786
hcc2935 (lung)
  Amax: 3.035
hcc4006 (lung)
  Amax: -45.676
hct15 (large_intestine)
  Amax: -18.4329
hct116 (large_intestine)
  Amax: -41.8056
Hdmyz (haematopoietic_and_lymphoid_tissue)
  Amax: -70.2074
hdqp1 (breast)
  Amax: -11.6831
hec1a (endometrium)
  Amax: -0.2935
hec1b (endometrium)
  Amax: -44.265
hec6 (endometrium)
  Amax: 9.745
hec59 (endometrium)
  Amax: -17.0499
hec151 (endometrium)
  Amax: 0.04545
hec251 (endometrium)
  Amax: 3.202
hec265 (endometrium)
  Amax: 6.223
hel9217 (haematopoietic_and_lymphoid_tissue)
  Amax: 0.4869
hep3b217 (liver)
  Amax: 2.738
hepg2 (liver)
  Amax: -37.2895
heya8 (ovary)
  Amax: -44.7632
hgc27 (stomach)
  Amax: -65.8757
Hh (haematopoietic_and_lymphoid_tissue)
  Amax: -3.613
Hle (liver)
  Amax: -18.5726
Hlf (liver)
  Amax: 6.292
hmc18 (breast)
  Amax: -31.7315
Hmcb (skin)
  Amax: -41.1129
Hos (bone)
  Amax: -0.8851
Hpac (pancreas)
  Amax: -55.1912
Hpafii (pancreas)
  Amax: -3.9084
hs229t (lung)
  Amax: -28.1577
hs294t (skin)
  Amax: -32.1941
hs578t (breast)
  Amax: -21.2687
hs695t (skin)
  Amax: -3.506
hs729 (soft_tissue)
  Amax: 10.8537
hs739t (breast)
  Amax: -26.62
hs746t (stomach)
  Amax: -37.6649
hs766t (pancreas)
  Amax: -32.0513
hs840t (upper_aerodigestive_tract)
  Amax: -29.2379
hs852t (skin)
  Amax: -6.059
hs936t (skin)
  Amax: -38.0651
hs939t (skin)
  Amax: -14.4612
hsc2 (upper_aerodigestive_tract)
  Amax: 0.4805
ht29 (large_intestine)
  Amax: -56.1634
ht144 (skin)
  Amax: -18.5925
ht1080 (soft_tissue)
  Amax: -36.8044
ht1197 (urinary_tract)
  Amax: -10.59
ht1376 (urinary_tract)
  Amax: 7.547
Ht (haematopoietic_and_lymphoid_tissue)
  Amax: 8.223
hucct1 (biliary_tract)
  Amax: 1.7282
huh1 (liver)
  Amax: -43.6531
hupt3 (pancreas)
  Amax: -32.6303
hupt4 (pancreas)
  Amax: -52.4819
hut78 (haematopoietic_and_lymphoid_tissue)
  Amax: 8.299
Ialm (lung)
  Amax: 0.7254
igr37 (skin)
  Amax: -22.1572
igr39 (skin)
  Amax: 0.9211
igrov1 (ovary)
  Amax: -1.9772
im95 (stomach)
  Amax: -0.7889
imr32 (autonomic_ganglia)
  Amax: -55.0108
ipc298 (skin)
  Amax: -16.0715
ishikawaheraklio02er (endometrium)
  Amax: 0.9691
istmes1 (pleura)
  Amax: -35.2757
istmes2 (pleura)
  Amax: -42.1214
j82 (urinary_tract)
  Amax: -0.8954
jhh2 (liver)
  Amax: -16.2272
jhh4 (liver)
  Amax: -26.3135
jhh5 (liver)
  Amax: -74.5916
jhh6 (liver)
  Amax: 4.949
jhh7 (liver)
  Amax: -42.8596
jhos2 (ovary)
  Amax: 12.8505
jhos4 (ovary)
  Amax: 4.354
jhuem2 (endometrium)
  Amax: -27.6126
